# Data from patent US20220226484A1, “THERAPEUTIC PEPTIDES” (COHBAR, INC., priority 2019, published 2022).
# Positions of bridges follow the written chain, without caps; N, C: chain ends. Non-standard residues stand in square brackets, D forms with d. Primed or numbered codes have the meaning given here. Chains are numbered I, II in the order given. No end group written: not given here. PEG12′ = not defined here
# What was measured:
# C2C12 Mouse Myoblasts = assay: Glucose utilization; assay type: cell-based; conditions: peptide 10 μM, 18-22 hours, relative to 0.1% DMSO treated control
# Description: The effect of the peptides on glucose metabolism can be assessed using an assay of glucose utilization in cultured cultured cells such as mouse myoblasts. Peptides were initially prepared as 10 mM stock in DMSO and used at a final concentration of 10 μM (0.1% DMSO). C2C12 mouse myoblast cell line was purchased from American Type Culture Collection (Manassas, Va.). C2C12 cultures were maintained at 37° C. in a humidified atmosphere of 5% CO2/95% air with medium changes every second day. C2C12 cells were grown in DMEM (1 g/L glucose) supplemented with 10% FBS with 100 IU/ml penicillin and 100 μg/ml streptomycin. C2C12 cells were seeded at 7,000 cells per well on 96-well plates and cultured to confluence. Once the cell reached confluence the media was changed to DMEM (1 g/L glucose) supplemented with 2% HS with 100 IU/ml penicillin and 100 μg/ml streptomycin and maintained at 37° C. in a humidified atmosphere of 5% CO2/95% air. 5 days post-induction of differentiation fresh DMEM (1 g/L glucose) supplemented with 2% HS with 100 IU/ml penicillin and 100 μg/ml streptomycin was added to cultures. Cells were maintained at 37° C. in a humidified atmosphere of 5% CO2 and 95% air for 5 hours. After 5 hours test peptides at 10 μM or controls (0.5 mM or 1 mM metformin in 1% DMSO) prepared in fresh differentiation medium were added to cells and the cultures were maintained at 37° C. in a humidified atmosphere of 5% CO2/95% air for 18-22 hours. At the end of the incubation culture media was removed from the cells and the remaining glucose concentration was measured using a Glucose Assay kit (Abcam) according to the manufacturer's instructions, using a Cytation 3 plate reader at 570 nm (BioTek, Winooski, Vt.). Glucose concentrations in the medium were calculated relative to 0.1% DMSO treated control cells. The relative standard deviation of the result for the 0.1% DMSO treated control was <20%. Metformin was used as a positive control for reduction of glucose levels (increased glucose utilization glucose levels for treatment with metformin (1 mM) treatment were <20% of the 0.1% DMSO treated control value. The results are reported in Table 7.
# [1] = system: SH-SY5Y Neuroblastoma Cells; assay: ATP levels (CellTiter-Glo); assay type: cell-based, human; conditions: peptide 10 μM, 18-20 hours, relative to 0.1% DMSO treated control
# Description: The effect of the peptides on cellular metabolism can be assessed using an assay of ATP levels in cultured cells such as human neuroblastoma cells. Peptides were initially prepared as 10 mM stock in DMSO and used at a final concentration of 10 μM (0.1% DMSO). […] CellTiter-Glo® Assay kit was purchased from Promega. SH-SY5Y human bone marrow neuroblastoma cell line was purchased from American Type Culture Collection (Manassas, Va.) and licensed from Memorial Sloan-Kettering Cancer Center (New York, N.Y.). SH-SY5Y cells were grown in DMEM/F12 medium supplemented with 10% FBS with 100 IU/ml penicillin and 100 μg/ml streptomycin. Cultures were maintained at 37° C. in a humidified atmosphere of 5% CO2/95% air. SH-SY5Y cells were seeded at 30,000 cells per well on 96-well plates. […] ATP levels were determined using a CellTiter-Glo Assay kit (Promega) according to the manufacturer's instructions. Luminescence for each sample well on the plate was measured using a Cytation 3 plate reader (BioTek, Winooski, Vt.). Activity was calculated relative to 0.1% DMSO treated control. The relative standard deviation of the result for the 0.1% DMSO treated control was <5%.
# [2] = system: A172 human brain glioblastoma cell line; assay: Caspase 3/7 activity (Caspase-Glo 3/7 Assay); assay type: cell-based; conditions: peptide 10 μM, 18-20 hours, relative to 0.1% DMSO control
# Description: The effect of the peptides on cell death/survival can be assessed using a caspase-3/7 assay in cultured cells. Peptides were dissolved at 10 mM in DMSO as stock solutions for use at a final concentration of 10 μM. […] Caspase-Glo 3/7 Assay Reagent was purchased from Promega (Madison, Wis.). A172 human brain glioblastoma cell line was purchased from American Type Culture Collection (Manassas, Va.). A172 cells were grown in DMEM supplemented with 10% FBS with 100 IU/ml penicillin and 100 μg/ml streptomycin. Cultures were maintained at 37° C. in a humidified atmosphere of 5% CO2/95% air. A172 cells were seeded at 8,000 cells per well on 96-well plates. […] Caspase 3/7 activity was determined using a Caspase-Glo 3/7 Assay kit (Promega) according to the manufacturer's instructions. Luminescence for each sample well on the plate was measured using a Cytation 3 plate reader (BioTek, Winooski, Vt.). Activity was calculated relative to 0.1% DMSO control.
# human lung fibroblasts = assay: Fibroblast-to-myofibroblast transition assay, alpha smooth muscle actin expression; assay type: cell-based; conditions: 1.25 ng/ml TGF-β1, 72 hours
# From the text: The effect of the peptides on fibrosis can be assessed in vitro using a fibroblast-to-myofibroblast transition (FMT) assay and monitoring alpha smooth muscle actin ([…]SMA) produced by cultured cells such as healthy primary human lung fibroblast cells. Assay performed by Charles River Discovery Research Services UK Limited (Essex, UK). Transforming growth factor beta-1 (TGF-β1) stimulated alpha smooth muscle actin (αSMA) expression in human lung fibroblasts derived from three healthy donors was used to assess anti-fibrotic activity. Peptides were prepared as 10 mM stock in DMSO and tested in eight (8)-step concentration response curves using 0.5 Log M dilution steps with 10 μM as highest concentration (0.1% DMSO final). Transforming Growth Factor beta (TGF-β1) was used as a potent inducer of FMT as measured by increased αSMA expression. Isolated lung fibroblasts were seeded in 96-well or 384-well PureCol coated plates. Five days post-seeding, medium was refreshed, and peptides, reference compounds, and controls are added to the cells. After one hour, 1.25 ng/ml TGF-β1 was added to induce FMT. Expression of αSMA was measured 72 hours later by immunostaining, assessed by high content imaging on an IN Cell Analyzer 2200 (GE Healthcare) and quantified using an in-house developed algorithm with the IN Cell developer software (GE Healthcare). The output of the algorithm represents the staining intensity multiplied by the stained area (DxA levels). Co-staining of cell nuclei with DAPI was performed to quantify cell number, a measure of potential toxicity. The αSMA expression levels observed using 0.1% DMSO (negative control) were used to calculate percentage inhibition of αSMA by each peptide.
Substance,"Glucose Utilization (glucose in medium), Percent of Untreated Control (C2C12 Mouse Myoblasts)","ATP Levels, % Control [1]","Caspase 3/7 Activity, Percent of Control Activity [2]",Mean Percent Inhibition of alpha-SMA Expression (human lung fibroblasts; peptide 0.00316 μM),Mean Percent Inhibition of alpha-SMA Expression (human lung fibroblasts; peptide 0.01 μM),Mean Percent Inhibition of alpha-SMA Expression (human lung fibroblasts; peptide 0.0316 μM),Mean Percent Inhibition of alpha-SMA Expression (human lung fibroblasts; peptide 0.1 μM),Mean Percent Inhibition of alpha-SMA Expression (human lung fibroblasts; peptide 0.316 μM),Mean Percent Inhibition of alpha-SMA Expression (human lung fibroblasts; peptide 1 μM),Mean Percent Inhibition of alpha-SMA Expression (human lung fibroblasts; peptide 3.16 μM),Mean Percent Inhibition of alpha-SMA Expression (human lung fibroblasts; peptide 10 μM)
MRVIRMCLGVGLLGDLAG [SEQ ID NO: 2],110.9%,99.6%,109.3%,,,,,,,,
RVIRMCLGVGLLGDL(dA)G (RVIRMCLGVGLLGDL[dA]G) [SEQ ID NO: 4],107.3%,104.7%,112.4%,,,,,,,,
RVIRMCLGVGLLGDLAG [SEQ ID NO: 3],108.0%,101.5%,109.4%,,,,,,,,
RVIRMCLGVGLLGDLAGK{PEG12} (chain 1 RVIRMCLGVGLLGDLAGK(PEG12′); chain 2 RVIRMCLGVGLLGDLAGK(PEG12′); disulfide I:6-II:6) [SEQ ID NO: 28],,,,6.25%,1.25%,−5.63%,−5.63%,4.06%,28.1%,81.6%,88.1%
RVIRMCLNVGLLGEL(dA)G [SEQ ID NO: 5] (RVIRMCLNVGLLGEL[dA]G),111.2%,100.8%,107.0%,,,,,,,,
